Measurements reported in patent publication US10174065B2, “Antidiabetic enolic glucoside of phenylpyruvic acid” (ZADEC APS, priority 2010, dated 2019).

How the values were obtained:
Chang cells = test: 2-deoxy-[3H]-D-glucose uptake assay; assay type: cell-based; settings: Chang cell cultures, 3 hrs exposure
Protocol: The glucose uptake of RX-1 and selected analogues after administration of test compounds to Chang cell cultures were determined in an operating protocol for the 2-deoxy-[^3H]-D-glucose. The protocol, which is described in more detail below, has been designed to test for the RX-1 (and RX-1 analogues) mediated glucose uptake. In Table the EC50 values for the uptake for RX-1 and representative analogues is shown.
Stock solutions of the RX-1 analogues supplied in cryo vials (DrugMode) was prepared by diluting the compound with […] sterile tissue culture grade water. This will yield a 5 mM stock solution. If the analogue […] an additional 50 μl methanol will be added (this will be recorded clearly on the log sheet). This will yield a 4 mM stock solution. Stock solutions will be kept on ice at all times and analogues will be stored in 20 μl aliquots at −80 C for subsequent use. Tubes that have been thawed will be clearly marked on the label.
RX-1 (10 μM) Positive Control Solution • To prepare a 10 μM RX-1 solution as positive control. Add 30 μl to 2970 μl modified DMEM media supplemented with 8 mM glucose.
RX-1 Analogue (31.6 μM) Test Solutions • To prepare a 31.6 μM RX-1 analogue test solution. Add 19 μl of the 5 mM to 2981 μl modified DMEM media supplemented with 8 mM glucose. To prepare a 31.6 μM RX-1 analogue test solution from a 4 mM stock solution, add 24 μl to 2976 μl modified DMEM media supplemented with 8 mM glucose.
Cell Seeding in 24-Well Plates • Chang cells are cultured according to procedures described in MRC cell culture SOPs: TC-B2a Thawing of cells and TC-B1a Cell line maintenance—general principles. Make sure cells are in the log phase (i.e. <70% confluence) and less than 20 passages. • Harvest cells using 0.25% (w/v) Trypsin/0.53 mM EDTA solution. • Count cells and resuspend to 30 000 cells/ml (Chang cell seeding density for 24-well plate=30 000 cells/ml) in EMEM (with pyruvate and NEAA, but without L-glutamate (Lonza, USA) containing 10% FBS (Gibco, UK) and pipette 1 ml/well cell suspension to a 24-well plate corresponding to 30 000 cells/well.
• after 3 days of cell growth, aspirate medium • wash cells once with pre-warmed DPBS at 37° C. • add 500 μl of pre-warmed 37° C. DMEM/0.1% BSA (without phenol red, glucose and pyruvate) to serum starve cells to remove residual glucose and FBS • incubate at 37° C. in humidified air and 5% CO2 for 30 min • aspirate DMEM/0.1% BSA (without phenol red, glucose and pyruvate) • Prepare test dilutions as specified in the plate layout (see below) • add 500 μl pre-warmed 37° C. of test dilution per well according to plate layout • incubate at 37° C. in humidified air and 5% CO2 for 3 hrs • remove test medium and wash cells once with DPBS (37° C.) • add 250 μl of test medium containing 0.5 μCi/ml ^3H-2-DOG to each well use (0.5 μl ^3H to 1 ml medium) • Incubate cells at 37° C. in humidified air and 5% CO2 for 15 min • Aspirate medium • To stop the reaction, wash cells twice with ice-cold DPBS • Aspirate DPBS and ensure that wells are as dry as possible • Lyse cells by adding 1 ml of 0.3N NaOH/1% SDS and incubate at 37° C. for at least 45 min • Mix cell lysate thoroughly before subsequent use in LSC and Bradford protein determination

GLP1 = settings: blood of treated OB/IR rats; other studies in our laboratory (Louw et al. 2008); cited from earlier work
3T3-L1 adipocytes = test: Glucose uptake in transformed 3T3-L1 adipocytes (colourometric glucose oxidase method); assay type: cell-based
Protocol: 3T3-L1 cells were transformed in culture using modified DMEM differentiation media supplemented with insulin, dexametasone and isobutylmethylxanthine and cultured for 3 days. The transformed 3T3-L1 adipocytes were then cultured for a further 5 days in modified DMEM supplemented with 10% FCS before being exposed to insulin, metformin and compounds of the present invention (see Table 1). Glucose uptake over a three (3) hour period was determined after the 5 days of treatment using a colourometric glucose oxidase method (Biovision Inc, USA).
The glucose concentration column represents the glucose concentration remaining in the media following three (3) hour exposure to the cells. The glucose uptake column represents glucose uptake from the media after a 3 hour exposure. SD represents the standard deviation. The percentage increases calculated from the relevant solvent vehicle and the P=values are reflected in the last two columns respectively.

plasma glucose level = test: Reduction in plasma glucose of a diabetic primate after a single dose (FIG. 1); assay type: in vivo, monkeys; settings: diabetic primate M1081, baseline glucose 6.3 mmol/L, over 6 h after a single dose, 10.4 ug/kg BW

## O=C(O)/C(=C/c1ccccc1)O[C@@H]1O[C@H](CO)[C@@H](O)[C@H](O)[C@H]1O [RX-1, 3-Phenyl-2-(3,4,5-trihydroxy-6-hydroxymethyl-tetrahydro-pyran-2-yloxy)-acrylic acid]
Chang cells
  EC50: 3.22 µM
GLP1
  circulating GLP1 levels: increased
3T3-L1 adipocytes; 3T3-L1 adipose cells
  glucose uptake over a 3 hour culture period: significantly increased
3T3-L1 adipocytes; glucose remaining in the media after 3 hour exposure to the cells, media containing 8 mM glucose
  Glucose conc.: 3.19 nM/ul
3T3-L1 adipocytes; glucose uptake from the media after 3 hour exposure, media containing 8 mM glucose
  Glucose Uptake: 2.86 nM/ul
3T3-L1 adipocytes; relative to DMSO vehicle = 100.00, 3 hour glucose uptake
  % uptake: 122.64%
Plasma glucose level
  reduction in plasma glucose level: reduce the blood sugar of monkeys for prolonged periods of time
